Biological target: Mitogen-activated protein kinase 10 (Homo sapiens, UniProt P53779)
Experiment: Inhibition of JNK3

Mitogen-activated protein kinase 10, sequence (P53779 whole entry): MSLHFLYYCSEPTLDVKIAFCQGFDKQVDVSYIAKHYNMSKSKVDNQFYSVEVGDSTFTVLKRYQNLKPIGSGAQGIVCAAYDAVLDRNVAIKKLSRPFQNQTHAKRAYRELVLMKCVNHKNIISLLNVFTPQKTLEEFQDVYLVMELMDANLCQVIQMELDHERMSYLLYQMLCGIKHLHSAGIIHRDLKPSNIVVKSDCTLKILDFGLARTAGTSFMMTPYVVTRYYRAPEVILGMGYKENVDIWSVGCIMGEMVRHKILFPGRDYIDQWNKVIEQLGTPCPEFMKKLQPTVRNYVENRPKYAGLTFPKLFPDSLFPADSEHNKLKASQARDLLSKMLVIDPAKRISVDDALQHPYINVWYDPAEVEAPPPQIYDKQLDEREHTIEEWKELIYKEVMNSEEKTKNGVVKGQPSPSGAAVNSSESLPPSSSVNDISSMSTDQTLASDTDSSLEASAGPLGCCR

IC50 | Compound
3.1 nM | COc1ccc(CCNc2nccc(/C(C#N)=C3\Nc4ccccc4S3)n2)cc1
41 nM | N#C/C(=C1/Nc2ccccc2S1)c1ccnc(NCCc2ccc(S(N)(=O)=O)cc2)n1

The next lines start with the compound.

Compound | IC50
Oc1c2ccccc2c2c3c(cccc13)N=N2 [SP-600125] | 190 nM
NC1=CC=C2SN=C3c4ccccc4C(=O)C1C23 (stereo not given) | 400 nM
CCCn1c(C2CCN(C)CC2)nc(-c2ccc(Cl)c(Cl)c2)c1-c1ccnc(NC2CC2)n1 | 1.6 nM

— ChEMBL document CHEMBL1140628, “Assessing potency of c-Jun N-terminal kinase 3 (JNK3) inhibitors using 2D molecular descriptors and binary QSAR methodology” (Bioorg Med Chem, 2007)
